Laboratory results taken from patent US12011433B2 (UNIVERSITÁ DEGLI STUDI DI BARI “ALDO MORO”, priority 2016, dated 2024).

Assays:
COX-2 [1] = molecular target: T1, COX-2 (Mus musculus (Mouse), UniProt Q05769); assay: COX-2 expression in brain regions of LPS-treated mice, immunoblotting; type: in vivo; conditions: for COX-2 expression reduction (%): mofezolac 6 mg/kg i.p.
Description: Substantia nigra pars compacta (SNpc), Hippocampus, Frontal lobe and Caudate from mice brains were minced in ice-cold PBS, washed and then homogenized in a buffer containing lysis buffer (50 mM Tris pH 8, 0.02 g/mL NaCl, 0.2% SDS, 1% Triton-X, 4 U/ml aprotinin, 2 mM leupeptin, 100 mM phenylmethanesulfonyl fluoride).
(§1) The tissue and cell culture lysates were vortexed for 15-20 s and, then, centrifuged at 12,800×g for 20 min. The protein concentration in the supernatant was spectrophotometrically determined by Bradford's protein assay (Bradford, 1976). Protein samples were diluted with sample buffer (0.5 M Tris-HCl pH=6.8, 10% glycerol, 10% (w/v) SDS, 5% 2-mercaptoethanol, 0.05% (w/v) bromophenol blue) and then boiled for 3 min. Proteins (25 μg/lane) and prestained standards (BioRad Laboratories, Hercules, CA, USA) were loaded on 7% or 12% SDS precast polyacrylamide gels (BioRad Laboratories).
(§2) After electrophoresis, the resolved proteins were transferred from the gel to nitrocellulose membranes. A blotting buffer [20 mMTris/150 mM glycine, pH=8.0, 20% (v/v) methanol] was used for gel and membrane saturation and blotting. Then, membranes were incubated in the dark with 1 μg/mL mouse monoclonal antibody (MoAb) anti-COX-1 and rabbit polyclonal Ab anti-COX-2 (1:1000) (both from AbCam, Cambridge, UK), rabbit polyclonal Ab anti p-IkB-α (1:200), mouse polyclonal Ab anti β-actin (1:500) (all from Santa Cruz Biotechnology), mouse MoAb anti-glial fibrillary acidic protein (GFAP) (1:200) and mouse mAb anti-ionized calcium-binding adapter molecule-1 (Iba-1) (1:200) (both from Merck Millipore) overnight at 4° C. The membranes were washed with 0.1% Tween 20-PBS (for 20 min, 3 times) and then incubated with the secondary antibody diluted 1:2000 for 60 min. Bands were visualized by chemiluminescence detection (Invitrogen, Milan, Italy). The β-actin level was used as a protein loading control. For tissue analysis, obtained bands were normalized to the level of β-actin performed for each cerebral area tested. For cell cultures the bands were normalized to the β-actin level in each experimental condition.
On the seventh day, mice were anesthetized with tribromoethanol (250 mg/Kg, i.p.) and positioned in a stereotactic apparatus (Kopf Instruments, Tujunga, CA, USA). […] Sterotaxic injections coordinates were: 2.3 mm dorsal/ventral, 1.0 mm lateral, and 0.5 mm anterior/posterior from the bregma.

[2] = Caco-2 monolayer efflux assay, Apparent Permeability (Papp), with or without GLUT-1 inhibitor phloretin; type: in vitro ADME, Human; conditions: human, compound alone
Description: (§3) In a monolayer efflux assay, the Apparent Permeability (Papp) in both basolateral to apical [Papp(B→A)] and apical to basolateral [Papp(A→B)] directions was determined for each compound (FIG. 2). Human colonic adenocarcinoma cell line (Caco-2) presents a facilitated transport system at the apical and basolateral surface. Caco-2 cells express high levels of GLUT-1 that are localized to the basolateral membrane and transport glucose to the serosal side.
(§4) The Papp(B→A) flux of each compound alone or in the presence of phloretin, a GLUT-1 inhibitor, has been determined. Since GLUT-1 is express in the basolateral compartment a high B→A flux means that the transport is GLUT-1 mediated because B→A flux represents the active transport.
(§5) A→B flux, which represents the passive transport, has also been determined for each compound (Table 2).

Caco-2 cells = assay: as above; type: in vitro ADME, Human; conditions: compound alone
Description: as §3, §4, §5

BV2 microglial cells = assay: BV2 microglial cell viability, MTT reduction assay; type: cell-based; conditions: 24 h, P6 0.5 and 1 μM, mofezolac 0.1 and 0.5 μM, alone or with LPS
Description: (§6) Cells were then incubated for different times at 37° C. with LPS, as pro-inflammatory stimulus. Experiments included cells grown in medium alone (control).
Cell viability of microglial cells was quantified using the MTT reduction assay. The cells (8×10^3/well) were grown in 96-well plates (Becton Dickinson Labware) in complete medium and treated with different concentration of COX inhibitors, in presence or absence of LPS. Untreated cells were used as a control. A PBS 1× solution of MTT (5 mg/mL) was prepared and added to the cell medium at a final concentration of 0.5 mg/mL. Cells were incubated for 4 h at 37° C. and 5% CO2 to allow the MTT metabolism. The formazan crystals formed (from MTT) into the cells were solubilized with DMSO (Sigma-Aldrich). The levels of MTT formazan were determined measuring the optical density at λ=560 nm and subtracting the background (λ=670 nm) with a Victor Multiplate Reader (Wallac). Optical density was directly correlated to cell quantity.

COX-2 [3] = molecular target: T1, COX-2; assay: COX-2 expression in LPS-treated BV2 microglial cells, western blotting; type: cell-based; conditions: LPS-stimulated BV2 cells
Description: as §6, §1
After electrophoresis, the resolved proteins were transferred from the gel to nitrocellulose membranes. A blotting buffer [20 mMTris/150 mM glycine, pH=8.0, 20% (v/v) methanol] was used for gel and membrane saturation and blotting. […]

COX-2 [4] = molecular target: COX-2 (Homo sapiens, UniProt P35354); assay: colorimetric COX Inhibitor screening Assay (peroxidase component, oxidized TMPD at 590 nm); type: biochemical; conditions: at 50 μM, the highest concentration tested
Description: Human cyclooxygenase inhibitory activity was determined by a colorimetric COX Inhibitor screening Assay which measures the peroxidase component of the cyclooxygenases, monitoring the appearance of oxidized N,N,N′,N′-tetramethyl-p-phenylenediamine (TMPD) at 590 nm.

PGE2 = PGE2 release in LPS-stimulated BV2 microglial cells, competitive binding immunoassay; type: cell-based; conditions: for PGE2 release (ng/ml) at 48 h: LPS-stimulated BV2 cells; for PGE2 production reduction: LPS-treated BV2 cells
Description: Microglial cells were cultured in 6-well plates at a density of 3×10^6 cells/well. […] The cultures were maintained at 37° C. for 24 and 48 h in a humidified air containing a 5% CO2. PGE2 levels were determined in the supernatant using a competitive binding immunoassay (Cayman Chemical, Ann Arbor, MI, USA) following the manufacturer's instructions. Unstimulated cells were included as a control. PGE2 amount determination in the brain was performed in the tissue extracts, according to the manufacturer's instructions. The optical density was measured at λ=405-420 nm with precision microplate reader and the amount of PGE2 (ng/mL) was calculated using a PGE2 standard curve.

COX-1 = COX-1 (Mus musculus (Mouse), UniProt P22437); assay: COX-1 expression in LPS-treated BV2 microglial cells, western blotting; type: cell-based
Description: as §6, §1, §2

Sequence of COX-2 (Homo sapiens, UniProt P35354) (P35354 18-604 limits assumed): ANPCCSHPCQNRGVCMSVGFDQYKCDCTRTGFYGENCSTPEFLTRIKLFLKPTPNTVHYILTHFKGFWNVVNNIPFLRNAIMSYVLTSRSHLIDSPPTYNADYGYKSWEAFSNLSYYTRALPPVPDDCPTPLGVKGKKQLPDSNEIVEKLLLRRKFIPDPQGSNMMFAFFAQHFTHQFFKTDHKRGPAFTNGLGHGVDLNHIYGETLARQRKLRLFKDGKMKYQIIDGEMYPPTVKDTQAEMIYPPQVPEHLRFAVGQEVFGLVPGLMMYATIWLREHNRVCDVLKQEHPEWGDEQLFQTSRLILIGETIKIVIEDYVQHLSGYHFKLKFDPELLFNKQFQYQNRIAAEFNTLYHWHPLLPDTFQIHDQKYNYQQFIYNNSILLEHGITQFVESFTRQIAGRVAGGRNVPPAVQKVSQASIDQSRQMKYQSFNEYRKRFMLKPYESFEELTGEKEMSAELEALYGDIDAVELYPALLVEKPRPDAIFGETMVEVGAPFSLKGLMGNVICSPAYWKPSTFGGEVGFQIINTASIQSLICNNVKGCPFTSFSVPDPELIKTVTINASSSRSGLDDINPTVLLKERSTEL

## COc1ccc(-c2noc(CC(=O)O)c2-c2ccc(OC)cc2)cc1 [mofezolac, 2-(3,4-bis(4-methoxyphenyl)isoxazol-5-yl)acetic acid]
COX-2 [1]; Caudate
  COX-2 expression reduction (%): 0%
COX-2 [1]; Frontal lobe
  COX-2 expression reduction (%): 0%
COX-2 [1]; Hippocampus
  COX-2 expression reduction (%): 0%
COX-2 [1]; Substantia nigra
  COX-2 expression reduction (%): 0%
COX-2 [1]; all tested brain regions
  effect on COX-2 modulation: no effect
[2]
  Papp B→A: 46.1 ×10⁻⁶ cm/s
Caco-2 cells
  Papp A→B: 41.4 ×10⁻⁶ cm/s
  Papp B→A: 46.1 ×10⁻⁶ cm/s
BV2 microglial cells
  cell toxicity: No cell toxicity
COX-2 [3]
  COX-2 protein levels: unaffected
COX-2 [4]
  inhibition at 50 µM: 38%
PGE2; 0.1 μM inhibitor + LPS
  PGE2 release (ng/ml) at 48 h: 0.06 ng/mL
PGE2; 0.5 μM inhibitor + LPS
  PGE2 release (ng/ml) at 48 h: 0.03 ng/mL
PGE2; at 0.5 μM as printed in the text
  PGE2 production reduction: 94%
PGE2; at 1 μM as printed in the text
  PGE2 production reduction: 97%
COX-1; BV2 cells, 48 h of incubation with LPS, 1 h pre-treated
  COX-1 expression levels: significantly reduced
COX-1; LPS-activated BV2 cells, independently from its concentration (0.1 and 0.5 μM)
  COX-1 expression reduction: 78%
